This note sets out measurements from article PMC3139024 (Bioorganic & medicinal chemistry letters, 2011).

One test addresses EcPDF (Escherichia coli, UniProt P0A6K3). In words: EcPDF inhibition, potency and selectivity profiling. Type of test: biochemical. Conditions: for EcPDF (%I): % Inhibition at 100 μM, average of duplicates, 100: ≥100 %I, 0: ≤0 %I.
For another test, the target named is T1, HsPDF (Homo sapiens, UniProt Q9HBH1).
T1 sequence (Q9HBH1 40-243): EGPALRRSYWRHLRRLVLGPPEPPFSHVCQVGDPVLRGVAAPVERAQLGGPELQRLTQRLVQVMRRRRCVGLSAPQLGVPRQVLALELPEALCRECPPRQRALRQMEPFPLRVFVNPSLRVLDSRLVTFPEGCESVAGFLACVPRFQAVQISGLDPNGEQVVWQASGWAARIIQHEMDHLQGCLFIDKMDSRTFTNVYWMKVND
In words: HsPDF inhibition, potency and selectivity profiling. Format: biochemical. To be noted: for inhibition at 100 µM: read-out: HsPDF (%I); for HsPDF (%I): % Inhibition at 100 μM, average of duplicates, 100: ≥100 %I, 0: ≤0 %I.

A further test has as its system Meso47. In words: cytotoxicity profile, Meso47. Type of test: cell-based. To be noted: read-out: Cytotoxicity IC50, Meso47.
In another test the test system is HL-60/RV+. The test is described as follows: cytotoxicity profile, HL-60/RV+. Format: cell-based. Conditions: Homo sapiens, HL-60, read-out: Cytotoxicity IC50, HL-60/RV+.
The test system of another test is HEK293. The test is described as follows: cytotoxicity profile, HEK293. Type of test: cell-based. Conditions: Homo sapiens, HEK293, read-out: Cytotoxicity IC50, HEK293.
Test [1] deals with panel of 15 bacterial strains. The test is described as follows: organism not typed. Format: cell-based.
The next test deals with metalloproteases tested. In words: activity toward the metalloproteases tested. Format: biochemical. To be noted: Suppl. Table 2.
The subject of the next test is CWR22. The test is described as follows: cytotoxicity profile, CWR22. Type of test: cell-based. Conditions: CWR22, read-out: Cytotoxicity IC50, CWR22.
For a further test, the system named is Y79. The test is described as follows: cytotoxicity profile, Y79. Type of test: cell-based. To be noted: Homo sapiens, Y79, read-out: Cytotoxicity IC50, Y79.
Test [2] concerns panel of nine well characterized cancer cell lines. In words: cytotoxicity profile across panel of nine cancer cell lines. Format: cell-based. To be noted: read-out: cytotoxicity IC50 range across cancer cell lines.
In a further test the test system is HL-60 tumors. In words: mouse xenograft model using HL-60 cells. Format: in vivo. To be noted: dose of 15 mg/kg, pilot study.
The next test has as its target T2, MMP-1 (Homo sapiens, UniProt P03956).
T2 sequence (P03956 100-469): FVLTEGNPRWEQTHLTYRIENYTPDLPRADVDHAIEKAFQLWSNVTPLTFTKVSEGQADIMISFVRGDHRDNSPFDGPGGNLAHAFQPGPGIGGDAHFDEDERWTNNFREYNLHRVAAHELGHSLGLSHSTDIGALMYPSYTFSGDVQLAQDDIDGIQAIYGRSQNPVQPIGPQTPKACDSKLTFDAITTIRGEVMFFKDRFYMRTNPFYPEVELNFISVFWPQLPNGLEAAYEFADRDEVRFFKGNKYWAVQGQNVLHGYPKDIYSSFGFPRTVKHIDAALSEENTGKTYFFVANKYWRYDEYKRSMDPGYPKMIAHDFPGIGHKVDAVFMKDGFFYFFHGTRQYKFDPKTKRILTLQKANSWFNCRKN
The test is described as follows: MMP-1 inhibition, metalloprotease selectivity panel. Type of test: biochemical. Conditions: for MMP-1 (%I): % Inhibition at 100 μM, average of duplicates, 100: ≥100 %I, 0: ≤0 %I.

A further test deals with APN (Homo sapiens, UniProt P15144). In words: APN inhibition, metalloprotease selectivity panel. Format: biochemical. Conditions: % Inhibition at 100 μM, average of duplicates; 100: ≥100 %I; 0: ≤0 %I.
Sequence of APN (P15144 whole entry, species assumed): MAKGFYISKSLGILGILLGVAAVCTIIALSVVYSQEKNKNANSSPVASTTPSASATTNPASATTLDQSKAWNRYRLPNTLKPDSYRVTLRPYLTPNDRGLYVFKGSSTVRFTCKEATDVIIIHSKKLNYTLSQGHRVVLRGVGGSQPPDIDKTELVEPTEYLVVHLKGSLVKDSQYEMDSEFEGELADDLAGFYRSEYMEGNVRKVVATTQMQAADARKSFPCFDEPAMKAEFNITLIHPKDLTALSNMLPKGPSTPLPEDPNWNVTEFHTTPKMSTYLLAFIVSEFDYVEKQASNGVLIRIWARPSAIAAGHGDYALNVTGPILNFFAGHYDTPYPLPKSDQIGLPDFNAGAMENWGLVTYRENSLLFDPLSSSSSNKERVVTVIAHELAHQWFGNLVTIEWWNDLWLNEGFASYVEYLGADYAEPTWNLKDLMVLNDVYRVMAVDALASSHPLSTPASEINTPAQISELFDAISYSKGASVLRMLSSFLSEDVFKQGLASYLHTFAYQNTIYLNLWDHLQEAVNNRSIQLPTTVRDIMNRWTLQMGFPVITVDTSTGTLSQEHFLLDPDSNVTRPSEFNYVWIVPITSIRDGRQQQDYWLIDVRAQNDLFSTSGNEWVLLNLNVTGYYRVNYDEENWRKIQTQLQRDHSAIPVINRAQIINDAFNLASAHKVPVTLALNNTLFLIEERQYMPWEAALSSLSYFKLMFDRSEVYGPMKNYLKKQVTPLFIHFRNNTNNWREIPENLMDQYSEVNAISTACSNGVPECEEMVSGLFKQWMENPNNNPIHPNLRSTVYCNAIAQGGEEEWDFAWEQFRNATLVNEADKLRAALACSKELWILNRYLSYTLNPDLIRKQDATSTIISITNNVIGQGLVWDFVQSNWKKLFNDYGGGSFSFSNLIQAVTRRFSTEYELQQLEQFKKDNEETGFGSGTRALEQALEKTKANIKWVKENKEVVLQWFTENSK

Sequence of EcPDF (P0A6K3 whole entry): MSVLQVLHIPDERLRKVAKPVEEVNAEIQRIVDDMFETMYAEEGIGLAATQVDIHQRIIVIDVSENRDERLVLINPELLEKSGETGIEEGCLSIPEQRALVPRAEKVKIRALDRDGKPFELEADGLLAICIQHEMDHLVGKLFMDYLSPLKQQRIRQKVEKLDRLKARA

With `COc1ccc(C(=O)c2coc3c2C(=O)C(=O)C=C3Cl)cc1` [Compd 19], the IC50 against EcPDF is > 100 µM; in the test with Meso47, ≥ 100 µM. Moreover, on HsPDF, the inhibition at 100 µM was ≥ 100%.

As for `COc1ccc(C(=O)c2coc3c2C(=O)C(=O)C(Cl)=C3Cl)cc1OC` [Compd 23], the IC50 in the test with HL-60/RV+ and in the test with HEK293 was ≥ 100 µM each time. Besides, the inhibition at 100 µM at HsPDF was ≥ 100%.

In the case of `CCCCC[C@H](CC(=O)NO)C(=O)N[C@H](C(=O)N1CCC[C@H]1CO)C(C)C` [Compd 1, actinonin, reference compound], the “antibacterial activity, number of strains” value in test [1] (panel of 15 bacterial strains) is “active in 12 out of the 15 strains tested”.

With `COc1ccc(C(=O)c2coc3c2C(=O)C(=O)c2ccccc2-3)cc1OC` [Compd 33], the “activity toward any of the metalloproteases tested” value (shortened to “activity toward any”) in the test on metalloproteases tested is listed as “no activity”.

In the case of `COc1ccc(C(=O)c2coc3c2C(=O)C(=O)C(Br)=C3Br)cc1OC` [Compd 26], the IC50 in the test with CWR22 was ≥ 100 µM; in the test with Y79, ≥ 100 µM; against EcPDF it was > 100 µM; in the test with HEK293, ≥ 100 µM; in the test on Meso47, ≥ 100 µM. Moreover, the inhibition at 100 µM on HsPDF was ≥ 100%.

For `COc1cc(C(=O)c2coc3c2C(=O)C(=O)C(Br)=C3Br)cc(OC)c1OC` [Compd 27], the IC50 in test [2] lay in the range of 2.8 to 37 µM. Also, at EcPDF, the “EcPDF (IC50, μM)” value is reported as “no significant activity” and the IC50 was > 100 µM. In addition, the inhibition at 100 µM on HsPDF is ≥ 100%. Besides, in the test with HL-60 tumors, the “delay of growth of HL-60 tumors” value is given as “up to 40%”.

On to `COc1ccc(C(=O)c2coc3c2C(=O)C(=O)C(Cl)=C3Cl)cc1` [Compd 22], for which the minimal inhibitory concentration (MIC) (commonly the lowest concentration found to suppress growth) in test [1] is > 64 µg/mL. Besides, the “MMP-1 (%I)” value at MMP-1 is reported as “no significant activity”. Besides, the inhibition at 100 µM on MMP-1 (read-out: MMP-1 (%I)) was ≤ 0%. Further, on EcPDF, the IC50 was > 100 µM and the “EcPDF (%I)” value is given as “no significant activity”. Moreover, the IC50 with Meso47 was ≥ 100 µM.

In the case of `COc1ccc(C(=O)c2coc3c2C(=O)C(=O)C=C3)cc1` [Compd 17], the “MMP-1 (%I)” value on MMP-1 is “low activity”. Besides, the IC50 was > 100 µM against EcPDF and ≥ 100 µM in the test with Meso47. The “EcPDF (%I)” value at EcPDF is listed as “low activity”. Moreover, the “APN (%I)” value at APN is on record as “low activity”. For the same molecule, at HsPDF, the “HsPDF (%I)” value was “completely inhibited”.

Turning to `O=C1C=Cc2occ(C(=O)c3ccccc3)c2C1=O` [Compd 16], the “MMP-1 (%I)” value at MMP-1 is reported as “low activity”. Besides, at EcPDF, the IC50 is > 100 µM and the “EcPDF (%I)” value is “low activity”. In addition, on APN, the “APN (%I)” value was “low activity”. For the same molecule, at HsPDF, the “HsPDF (%I)” value is on record as “completely inhibited” and the inhibition at 100 µM was ≥ 100%.

As to `COc1ccc(C(=O)c2coc3c2C(=O)C(=O)C=C3Br)cc1` [Compd 21], the values for the IC50 on EcPDF and with Meso47 were > 100 µM and ≥ 100 µM, respectively. For the same molecule, on HsPDF, the inhibition at 100 µM is ≥ 100%.

As to `COc1ccc(C(=O)c2coc3c2C(=O)C(=O)C(Cl)=C3)cc1` [Compd 20], the values for the IC50 at EcPDF and in the test with HEK293 were > 100 µM and ≥ 100 µM, respectively.

Consider `COc1cc(C(=O)c2coc3c2C(=O)C(=O)c2ccccc2-3)cc(OC)c1OC` [Compd 34], for which the “activity toward any” value in the test on metalloproteases tested is reported as “no activity”.

For `COc1ccc(C(=O)c2coc3c2C(=O)C(=O)c2ccccc2-3)cc1` [Compd 32], the “activity toward any” value in the test with metalloproteases tested is on record as “no activity”.

As to `O=C1C(=O)c2c(C(=O)c3ccccc3)coc2C(Cl)=C1Cl` [Compd 5], the MIC in test [1] is > 64 µg/mL. The IC50 with HL-60/RV+ was ≥ 100 µM; with Y79, ≥ 100 µM; on EcPDF, > 100 µM; in the test on HEK293, ≥ 100 µM; in the test with Meso47, ≥ 100 µM. The inhibition at 100 µM on HsPDF was ≥ 100%.

Consider `COc1ccc(C(=O)c2coc3c2C(=O)C(=O)C(Br)=C3Br)cc1` [Compd 25], for which the IC50 in the test on HL-60/RV+ was ≥ 100 µM; against EcPDF, > 100 µM; with HEK293 it was ≥ 100 µM; in the test with Meso47, ≥ 100 µM. Also, the inhibition at 100 µM at HsPDF is ≥ 100%.

With `COc1cc(C(=O)c2coc3c2C(=O)C(=O)C(Cl)=C3Cl)cc(OC)c1OC` [Compd 24], the values for the IC50 on EcPDF and with Meso47 were > 100 µM and ≥ 100 µM, respectively. For the same molecule, the inhibition at 100 µM at HsPDF was ≥ 100%.
